Test: Antioxidant activity (Trolox equivalent) of materials substituted for glycerol

In the case of `OCC(O)CO` [Glycerol, glycerol], the “Antioxidant (Trolox equivalent μM/g)” value is reported as 0 µM/g.

— patent publication US11570982B2, “Systems and methods for natural cryoprotectants for preservation of cells” (Membrane Protective Technologies, Inc., priority 2016, dated 2023)
